Like-named read-outs stand apart in the source and are kept apart here.
Legend:
[1] = tested on: chronically castrated patients with rising PSA and CRPC; test: Pilot study of BAT with oral etoposide, then second line therapy post-BAT; assay type: in vivo, human; conditions: for PSA decline upon re-challenge: agent previously progressed on
Source text: Based on the preclinical results and potential mechanisms for growth inhibition that include androgen-induced double strand breaks and stabilization of AR preventing relicensing, we have conducted a pilot study evaluating the efficacy and safety of pharmacologic doses of testosterone to produce high dose T levels in conjunction with oral etoposide in chronically castrated patients with rising PSA and CRPC (37). Patients who had been continuously castrate for more than one year with minimal metastatic disease burden (≤5 total bone metastases and ≤10 total sites of metastases) and/or rising PSA were eligible. To achieve rapid cycling between high dose and near castrate serum T (i.e., BAT) patients received intramuscular injection of 400 mg testosterone cypionate every 28 days. For the first 3 cycles of therapy patients received BAT plus oral etoposide 100 mg po/day days 1-14 of a 28-day cycle. After 3 cycles PSA response and objective response were assessed. Those patients with a PSA that was declining from peak levels and no objective evidence of disease progression or worsening pain were continued on therapy. Given the toxicity associated with etoposide and the lack of clinical response in an earlier trial (38), patients who responded after 3 cycles of testosterone plus etoposide were continued on testosterone alone based on protocol amendment.

[2] = tested on: patients with CRPC progressing on Enza (Cohort A) or Abi (Cohort B); assay type: in vivo, human
Source text: The RESTORE study (NCT02090114) was an NIH sponsored Phase II study designed to assess the safety and efficacy of BAT in patients (n=30 per cohort) with CRPC progressing on Enza (Cohort A) or Abi (Cohort B), FIG. 18A (34,39). The primary endpoint of the first part of the study was to assess PSA response to BAT. Secondary endpoints included objective response, safety, and quality of life. The second part of the study was to determine in BAT could re-sensitize patients to repeat exposure to second line therapy that patients were progressing on prior to receiving BAT. Thus, patients progressing on Enza were re-exposed to Enza after BAT and similarly for Abi. Both arms of this study met the primary endpoint. PSA50 response to BAT was 30% in patient's post-Enza and 18% post-Abi, FIG. 18B. […] Overall duration of response to BAT and duration of response to re-exposure was longer in the post-Enza vs. post-Abi cohort. The PSAso response to re-exposure to Enza was 71% vs. only 21% for patients re-exposed to Abi, FIG. 19B (7). A third cohort was later added (Cohort C) for patients progressing on ADT alone. Overall, 90 patients were treated on this study over a 4-year period (2014-2018).

[3] = tested on: asymptomatic patients with CRPC progressing on Abi; test: TRANSFORMER randomized Phase II study, BAT vs. Enza with crossover; assay type: in vivo, human
Experimental: The TRANSFORMER study (NCT02286921) was a DOD-sponsored randomized Phase II study designed to compare the efficacy of BAT vs. Enza in asymptomatic patients with CRPC progressing on Abi, FIG. 19A (2). The study was conducted at 17 academic centers across the US. The study was coordinated by the Prostate Cancer Disease Group clinical research team at Johns Hopkins, who performed regulatory oversight, study/site monitoring, and data analyses. From 2015-2018, 195 patients underwent 1:1 randomization to either standard dose Enza (n=101) or BAT (n=94) at 400 mg IM every 28 days. The primary endpoint was clinical/radiographic PFS. At time of progression, patients were given the option to crossover to the alternate therapy. The trial was designed to show a 50% improvement in the primary endpoint for BAT vs. Enza. […] Objective response was 24.4% for BAT and 4.2% for Enza (p=0.067). Best PSA50 was 26.4% for BAT and 25.5% for Enza (p=0.697).
At time of progression, 46 (49%) of patients on the Enza arm crossed over to receive BAT and 34 (33.7%) crossed over from BAT to receive Enza and were available for analysis. Remarkably, the PSAso response for patients who received Enza after BAT was 72.7% compared to 25.5% for patients receiving Enza immediately after Abi, FIG. 19D. Objective response in the Enza post-BAT patients was 28.6% compared to 4.2% post-Abi, FIG. 19B. […] The logical extension of these findings and the hypothesis of this proposal is that patients are likely to respond again to further repeat cycles of BAT and Enza, but this treatment strategy has yet to be explored in the clinical trial setting.

patients with CRPC [4] = test: Plasma putrescine in patients treated with BAT (COMBAT trial); conditions: human, in vivo
Source text: (§1) Vinculin was used as a loading control. FIG. 2F, Polyamine synthesis pathway.

MYC = MYC expression in metastatic tumor biopsies before and after BAT; assay type: in vivo, human; conditions: responding patients
Source text: (§2) FIG. 5A, FIG. 5B, FIG. 5C, FIG. 5D, and FIG. 5E show: FIG. 5A, MYC expression by IHC in a metastatic tumor biopsy from a patient before and after 3 months of BAT. FIG. 5B, Quantification of MYC protein expression from metastatic tumor biopsies from patients before and after 3 months of BAT color-coded by response (non-responder NR; responder R). […] Vinculin was used as a loading control. FIG. 5D, Principal component analysis of RNA and ATAC sequencing of LNCaP cells treated for 5 days with R1881 10 nM (SPA). […] Vinculin was used as a loading control;

patients with CRPC [5] = test: BAT clinical studies, overall experience; assay type: in vivo, human
Source text: A major driver of castration resistance is the adaptive upregulation of AR activity, often through AR protein overexpression, to a sufficient level to allow for renewed growth. This marked overexpression of AR makes PCa cells once again vulnerable to hormone shock, achieved not through further androgen blockade, but through exposure to supraphysiologic levels of androgen (SPA). Based on extensive preclinical studies, we developed Bipolar Androgen Therapy (BAT), which involves cyclic administration of SPA as treatment for CRPC.
Inhibition of signaling through the androgen receptor (AR) is the mainstay of treatment of advanced PCa. […] This phase of the disease is associated with poor prognosis and limited therapeutic options. The majority of PCas are addicted to signaling through AR and adaptively upregulate AR-activity, via mechanisms such as AR overexpression, to permit sustained AR signaling despite castration and AR inhibitors (1,2). Studies dating back nearly thirty years indicate that high expression of AR induced by prolonged castration becomes a vulnerability of CRPC cells in vitro and in mouse xenografts to supraphysiological androgen (SPA), which induces cell death and growth arrest in this context (3,4). On the basis of these studies, we developed an innovative treatment called Bipolar Androgen Therapy (BAT) for patients with CRPC, in which SPA is administered intermittently to result in cycling of serum testosterone from supraphysiological to near castrate levels. This rapid cycling is intended to reduce adaptation AR regulation associated with chronic exposure to high or low levels of testosterone, while simultaneously targeting the spectrum of AR expression present in heterogeneous CRPC tumors (5). We have now tested BAT in more than 350 patients with CRPC (6-10).

[6] = tested on: SKCaP-1R patient-derived xenograft tumors; test: Global metabolomics of SKCaP-1R tumors; assay type: in vivo, castrated NSG mice; conditions: 14 days of treatment
[7] = tested on: patients with advanced CRPC, long-term castrates; conditions: cited from earlier work
[8] = tested on: MYC in LNCaP and VCaP cells; test: MYC expression by western blot, RT-PCR, RNAseq; assay type: cell-based, human; conditions: to the level of SPA monotherapy
Source text: as §2

[9] = tested on: patients with early CRPC (rising PSA and minimal bone disease); conditions: cited from earlier work
patients with CRPC [10] = conditions: cited from earlier work
LNCaP cells [11] = test: Putrescine abundance by HPLC in cells and media; assay type: cell-based, human; conditions: 10 nM
Source text: as §1

VCaP cells = test: Colony formation (clonal survival); assay type: cell-based, human; conditions: Homo sapiens, VCaP; 0.5 nM
Source text: (§3) FIG. 3A. […] Ns, not significant. FIG. 3B. […] Ns, not significant. FIG. 3C. […] P values by ANOVA;

LNCaP cells [12] = test: Colony formation (clonal survival); assay type: cell-based, human; conditions: Homo sapiens, LNCaP; 0.5 nM
Source text: as §3

Q: With `C[C@]12CC[C@H](O)CC1=CC[C@@H]1[C@@H]2CC[C@]2(C)C(c3cccnc3)=CC[C@@H]12` [Abi] as the compound, how does the “patients with >50% PSA decline on second line therapy” value ([1]; post-BAT) read?
A: Four of 4

Q: What about the “PSA50 response to re-exposure (re-challenge) post-BAT” value ([2]; re-exposed to agent progressed on before BAT) of the same compound?
A: 21%

Q: What does the source list for `C[C@]12CC[C@H]3[C@@H](CCC4=CC(=O)CC[C@@]43C)[C@@H]1CC[C@@H]2OC(=O)CCC1CCCC1` [BAT, androst-4-en-3-one, 17-(3-cyclopentyl-1-oxopropoxy)-, (17ß)-]?
A: PSA50 response ([3]; BAT after Enza (crossover)): 22.2%; PSA50 response ([3]; initial treatment immediately after Abi, no prior crossover): 26.4%; clinical/radiographic PFS ([3]; randomized arms): 5.62 m; Objective response ([3]; randomized arms, post-Abi): 24.4%; plasma putrescine abundance (patients with CRPC [4]): increased; MYC expression in tumor biopsies (MYC): decreased; subjects experiencing an AE ([1]; BAT monotherapy phase): four; patients developing new bone metastases ([1]; completing 3 months of therapy): None of the 14 patients; AEs during BAT monotherapy phase ([1]; in vivo): rare and low grade; new pain, skeletal events or urinary obstruction due to prostate cancer ([1]; in vivo): None of the 14 patients; patients with decline in PSA from baseline ([1]; in vivo): Seven of fourteen; PSA decline/response and objective responses, patients ([1]; patients who completed three cycles): 50%; median time to PSA progression ([1]; seven patients with PSA decline, range 95 to 454 days): 221 days; complete response (CR) ([1]; ten RECIST-evaluable subjects): 10%; partial responses (PRs) ([1]; ten RECIST-evaluable subjects): 40%; stable disease ([1]; ten RECIST-evaluable subjects, median follow up 91 days): 30%; progressive disease (PD) ([1]; ten subjects with RECIST-evaluable soft tissue metastases): 20%; QoL surveys (FACIT Fatigue, IIEF, SF-36 subscales) ([2]; BAT compared to baseline on ADT): significant improvement; Adverse events to BAT, grade ([2]; in vivo): primarily Grade 1-2; patients with grade 3 hypertension attributed to BAT ([2]; in vivo): 3 patients; PSA50 response to BAT ([2]; post-Abi (Cohort B)): 18%; PSA50 response to BAT ([2]; post-Enza (Cohort A)): 30%; PSA50 response rate (patients with CRPC [5]; 56 days of BAT monotherapy, mCRPC): approximately 25%; PSA50 response rate (patients with CRPC [5]; 64 days of BAT monotherapy, mCRPC): approximately 25%; PSA/objective (biochemical and objective) response (patients with CRPC [5]; human, in vivo): 20-30%; quality of life (patients with CRPC [5]; human, in vivo): improved quality of life; objective response rate (patients with CRPC [5]; mCRPC, monotherapy): approximately 30%

Q: With `CC1(C)NC(=O)N(c2ccc([N+](=O)[O-])c(C(F)(F)F)c2)C1=O` [nilutamide] as the compound, how does the “PSA decline upon re-challenge” value ([1]; post-BAT) read?
A: 44.3%

Q: Which results are given for `C[C@]12CC[C@H]3[C@@H](CCC4=CC(=O)CC[C@@]43C)[C@@H]1CC[C@@H]2O` [testosterone]?
A: abundance of polyamine precursors ornithine and SAM in tumors [6]: decreased; abundance of polyamines putrescine and spermine in tumors [6]: increased; clinical improvement (pain, prostate size, phosphatases) ([7]; Brendler et al. 1949, parenteral): considerable improvement in several patients; patients with subjective improvement ([7]; long-term castrate group, at least one month): 4 of 5; patients with decline of acid phosphatase ([7]; longer course of testosterone): 2/5

Q: With `C[S+](CC[C@H](N)C(=O)O)C[C@H]1O[C@@H](n2cnc3c(N)ncnc32)[C@H](O)[C@@H]1O` (stereo partly shown) [SAM, S-adenosylmethionine] as the compound, how does the “rescue of MYC in cells treated with SPA and DFMO” value [8] read?
A: sufficient to rescue MYC

Q: With `CC(O)(CS(=O)(=O)c1ccc(F)cc1)C(=O)Nc1ccc(C#N)c(C(F)(F)F)c1` (stereo not shown) [bicalutamide] as the compound, how does the “PSA decline upon re-challenge” value ([1]; post-BAT) read?
A: 30.9%

Q: For `C[C@]12CC[C@H]3[C@@H](CCC4=CC(=O)CC[C@@]43C)[C@@H]1CC[C@@H]2O` [transdermal T], which “median concentration of T” value ([9]; 2.5 mg/day transdermal) is on record?
A: 305 ng/dL

Q: What about the “median concentration of T” value ([9]; 5.0 mg/day transdermal) of the same compound?
A: 308 ng/dL

Q: What about the “median concentration of T” value ([9]; 7.5 mg/day transdermal) of the same compound?
A: 297 ng/dL

Q: And the “patients with a decrease in PSA” value ([9]; 15 patients)?
A: 20%

Q: And the “grade 3 or 4 toxicities” value ([9]; in vivo)?
A: no grade 3 or 4 toxicities were observed with the exception of one person

Q: What about the “largest decrease in PSA” value ([9]; in vivo) of the same compound?
A: 43%

Q: What about the “patients with symptomatic progression” value ([9]; in vivo) of the same compound?
A: one

Q: And the “grade 3 or 4 toxicities, pain flares” value (patients with CRPC [10]; 7.5 mg/day)?
A: no grade 3 or 4 toxicities and no pain flares

Q: What about the objective responses (patients with CRPC [10]; 7.5 mg/day) of the same compound?
A: No objective responses

Q: What about the “patients with >50% PSA decline” value (patients with CRPC [10]; 12 patients) of the same compound?
A: one

Q: What about the “patients with at least 20% PSA declines” value (patients with CRPC [10]; 12 patients) of the same compound?
A: Four

Q: What does the source list for `C[C@]1(O)CC[C@H]2[C@@H]3CCC4=CC(=O)CCC4=C3C=C[C@@]21C` [R1881, 17α-methyl-19-nor-δ9,11-testosterone]?
A: putrescine, intracellular and extracellular (LNCaP cells [11]): Marked intracellular and extracellular accumulation; inhibition at 0.0005 µM (VCaP cells): ~15%; inhibition at 0.0005 µM (LNCaP cells [12]): ~15%

Q: For `N=C(N)c1cccc2c1CC/C2=N\N=C(N)N` [SAM486], which “rescue of MYC in cells treated with SPA and DFMO” value [8] is on record?
A: phenocopied

From US20260284076A1, “TESTOSTERONE AND DIFLUOROMETHYLORNITHINE COMBINATION THERAPY FOR PROSTATE CANCER” (The Johns Hopkins University, priority 2023, published 2026)
